Experimental data published in patent US20240391904A1, “DIHYDROPYRIMIDINE BASED COMPOUND, PREPARATION METHOD THEREFOR AND USE OF THEREOF” (CHENGDU SHIBEIKANG BIOMEDICAL TECHNOLOGY CO., LTD., priority 2021, published 2024).
Marks after values point to notes of the source that are not given here.

Key:
SD rats = test: Taste disorder test (quinine water versus tap water intake); type: in vivo, rat; details: for effect on the taste sense: 10 mg/kg intravenously, quinine/tap water ratio compared with vehicle group; for Quinine/tap water (%): 10 mg/kg tail intravenous injection, 0-15 min after administration, 0.3 mM quinine hydrochloride water versus tap water
Description: Compounds of Examples 1, 9, 12, 15, 16, 24 (synthesized in the laboratory of the present inventor), the positive control drug (gefapixant, batch No: 01030-210326-2-1, purchased from Holder Pharmaceuticals).
0.9% sodium chloride solution for injection, quinine hydrochloride (Quinie, batch No: C12476271)
Healthy adult SD rats, all males, weighing about 280-300 g.
Preparation of 0.3 mM quinine solution: 119.20 mg of quinine hydrochloride was weighed and dissolved in 1000 ml of tap water, and mixed evenly.
Preparation of the test sample solution: 40 mg of a test sample was dissolved in DMSO and a solution of the solubilizer HS-15 was added, mixed evenly, and 16 ml of saline was added to formulate a 2.5 mg/ml solution.
Animal and grouping: male SD rats weighed about 160-180 g each, with 10 of a similar average weight in each group, were housed in seperate cages.
Drinking habit training: each group was given normal drinking water for 30 minutes at 8:30 am and 16:30 pm every day, and no access of water for the rest of the day for 5 days, and two bottles of water were changed every day at the left and right positions.
Administration: with no access to water the night before the experiment, in the following morning the test group was given 4 mL/kg (10 mg/kg) of the test sample by tail intravenous injection, and the model group was given 4 mL/kg (10 mg/kg) of 0.5% HS-15 by intravenous injection.
The animals were allowed to drink freely for 15 min, and the amount of water consumed from the two bottles was measured to the nearest 0.1 ml.
(2) Statistical analysis of the data: the drinking volume of the quinine bitter water and tap water were recorded separately, as well as the percentage of quinine water to the tap water, and the significance of the difference between the groups was determined by ANOVA.

human P2X3 receptor = biological target: T1, human P2X3 receptor (Homo sapiens, UniProt P56373); test: In vitro bioactivity evaluation: FLIPR antagonist mode, HEK 293 cells stably transfected with human P2X3 receptor, BZATP agonist
T1 sequence (P56373 1-397): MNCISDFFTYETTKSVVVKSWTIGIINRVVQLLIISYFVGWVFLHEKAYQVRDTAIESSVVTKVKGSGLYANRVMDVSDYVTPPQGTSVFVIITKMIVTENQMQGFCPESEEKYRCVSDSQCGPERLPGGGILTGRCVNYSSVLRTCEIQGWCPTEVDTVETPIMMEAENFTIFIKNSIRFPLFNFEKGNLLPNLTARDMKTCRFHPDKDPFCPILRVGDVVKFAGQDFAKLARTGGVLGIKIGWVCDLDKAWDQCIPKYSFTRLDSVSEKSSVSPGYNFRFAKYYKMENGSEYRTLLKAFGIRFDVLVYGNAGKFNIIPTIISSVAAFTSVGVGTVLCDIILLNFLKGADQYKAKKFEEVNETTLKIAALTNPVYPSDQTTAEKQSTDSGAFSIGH
Description: Cell culture medium: DMEM high glucose; 10% FBS; 1% PenStrep.
The Petri dish was placed in an incubator for 1-3 minutes or until the cells were digested, 3 mL of a complete medium was then added to terminate the digestion, and the cell density was determined by a cell counter. • 2) After centrifugation at 1000 rpm/min for 5 min, the cells were resuspended in a growth medium and the volume of the suspension was adjusted to reach a cell density of 4×10^5 cells/mL (1×10^4 cells/25 μL). • 3) 10 μL of 5× Matrigel was added into a black microplate, and the microplate was placed in an incubator for 15 min. The microplate was removed and invertedly centrifuged at 300 g/min for 30 s to remove the 5× Matrigel.

KM mice = test: Mouse cough test (ammonia-induced coughing); type: in vivo; details: for cough suppressing effect compared with the positive compound / duration of the cough suppression action: 30 mg/kg; for Number of Coughs (time): mice; for reduction in the number of coughs at 3 mg/kg: compared with model group; for duration of the cough suppression action: 30 to 120 min after administration
Text: Compounds of Example 1-24 (synthesized in the inventor's laboratory), positive control drug (gefapixant, batch No: 01030-210326-2-1, purchased from Holder Pharmaceuticals), the compound of Comparative Example 1 (synthesized in the inventor's laboratory).
Healthy adult KM mice, half of them are male and half of them are female, 6 per group, weighing about 28-30 g.
Most of the animal coughing models currently reported in the literatures use mechanical, chemical and electrical stimulations to stimulate the nerves and receptors of the animals to trigger coughing. According to the characteristics of the candidate compounds and the existing similar target compounds for reference, the method of concentrated ammonia induction was initially chosen to establish the cough modeling test in mice.
Preparation of 50% ammonia solution: 2.5 ml of ammonia was dissolved in […] of a 0.9% sodium chloride solution for injection and mixed evenly.
Preparation of a solution of the compound of Comparative Example 1: 9 mg of the compound of Comparative Example 1 was weighed and dissolved in 3 ml of a 0.5% CMC-Na solution, and mixed evenly to prepare a 3 mg/ml solution.
Preparation of a solution of the example compounds: 9 mg of the example compound was weighed and dissolved in 3 ml of a 0.5% CMC-Na solution, and mixed evenly to prepare a 3 mg/ml solution.
Grouping: a positive control group, a Comparative Example 1 group, Example 1 group-Example 24 group, and a model group were set up. Six KM mice were taken from each group and administered by gavage; here, the Comparative Example 1 group was given the compound of Comparative Example 1, the positive control group was given the positive control drug (gefapixant, commercially purchased), the Example groups were given the compounds prepared in the corresponding Examples, with each group given one of three dosages: 30 mg/kg, […], and 3 mg/kg; and the model group was given the same volume of 0.5% CMC-Na solution.
30 min, 60 min or 120 min after administration, the mice were placed in a 500 ml beaker with a cotton ball (weight 100±5 mg) containing 0.3 ml of 50% ammonia.
(1) Judgment criteria of coughing: coughing was manifest in contraction of abdominal muscles or chest contraction, with mouth wide opening and a coughing sound.
(2) The number of coughs (times) within 3 min was recorded with a stopwatch, and the data were statistically analyzed by software, with the data in each group shown in mean±standard deviation. A one-way analysis of variance among the groups was conducted, and P<0.05 was considered a difference having a statistical significance.

[1] = cited from earlier work
[2] = 30 mg/kg by gavage, 30 min after administration, coughs within 3 min, ammonia-induced
[3] = 3 mg/kg by gavage, 60 min after administration, coughs within 3 min
[4] = 10 mg/kg by gavage, 60 min after administration, coughs within 3 min
[5] = 30 mg/kg by gavage, 60 min after administration, coughs within 3 min (Table 5)
[6] = 30 mg/kg by gavage, 60 min after administration, coughs within 3 min (Table 6)
[7] = 30 mg/kg by gavage, 120 min after administration, coughs within 3 min

Compound | effect on the taste sense (SD rats) | Quinine/tap water (%) (SD rats) | IC50 (human P2X3 receptor) [nM] | cough suppressing effect compared with the positive compound (KM mice; 30 min after administration) | Number of Coughs (time) (KM mice; [2]) | reduction in the number of coughs at 3 mg/kg (KM mice; 60 min after administration) | cough suppressing efficacy at 10 mg/kg (KM mice; 60 min after administration) | duration of the cough suppression action (KM mice) | Number of Coughs (time) (KM mice; [3]) | Number of Coughs (time) (KM mice; [4]) | Number of Coughs (time) (KM mice; [5]) | Number of Coughs (time) (KM mice; [6]) | Number of Coughs (time) (KM mice; [7]) | primary efficacy endpoint ([1]; 15 mg twice a day) | 24-hour cough frequency ([1]; 45 mg twice a day, Week 12 (COUGH-1) and Week 24 (COUGH-2), compared to placebo) | discontinuation due to adverse events ([1]; 45 mg) | taste-related adverse events ([1]; 45 mg)
COC(=O)[C@@H](C)Cn1c(=O)cc(Nc2ccc(Oc3cnccn3)cc2)n(Cc2ccc(Cl)cc2)c1=O [Compound 1] | little or no effect on the taste sense | 41.48%^Δ | < 10 | stronger than that of the positive compound | 15.33** time | – | – | – | – | – | – | – | – | – | – | – | –
C[C@@H](Cn1c(=O)cc(Nc2ccc(Oc3ccccn3)cc2)n(Cc2ccc(Cl)cc2)c1=O)C(=O)NS(C)(=O)=O [Compound 9] | little or no effect on the taste sense | 39.84%^Δ | 10.1 to 50 | stronger than that of the positive compound | 13.62** time | statistically significant (P<0.01) reduction in the number of coughs | improved cough suppressing efficacy than the positive control drug | significantly prolonged compared with that of the compound of Comparative Example 1 | 25.37** time | 19.54**^Δ time | 16.33** time | 16.33** time | 23.83**^Δ time | – | – | – | –
CC(C)(Cn1c(=O)cc(Nc2ccc(Oc3ccccn3)cc2)n(Cc2ccc(Cl)cc2)c1=O)C(=O)NS(C)(=O)=O [Compound 12] | little or no effect on the taste sense | 37.18%^Δ | < 10 | stronger than that of the positive compound | 15.67** time | – | improved cough suppressing efficacy than the positive control drug | significantly prolonged compared with that of the compound of Comparative Example 1 | 33.17 time | 21.17**^Δ time | 17.17** time | 17.17** time | 20.17*^Δ time | – | – | – | –
CS(=O)(=O)NC(=O)C1(Cn2c(=O)cc(Nc3ccc(Oc4ccccn4)cc3)n(Cc3ccc(Cl)cc3)c2=O)CC1 [Compound 15] | little or no effect on the taste sense | 40.22%^Δ | 10.1 to 50 | stronger than that of the positive compound | 18.64** time | statistically significant (P<0.01) reduction in the number of coughs | improved cough suppressing efficacy than the positive control drug | significantly prolonged compared with that of the compound of Comparative Example 1 | 24.83** time | 20.83**^Δ time | 16.33** time | 16.33** time | 23.83**^Δ time | – | – | – | –
C[C@@H](Cn1c(=O)cc(Nc2ccc(Oc3ncccc3F)cc2)n(Cc2ccc(Cl)cc2)c1=O)C(=O)NS(C)(=O)=O [Compound 16, (S)-3-(3-(4-chlorobenzyl)-4-(4-(3-(3-fluoropyridin-2-yl)oxyphenyl)amino)-2,6-dioxo-3,6-dihydropyrimidin-1(2H)yl)-2-methyl-N-(methylsulfonyl)propionamide group] | little or no effect on the taste sense | 42.53%^Δ | < 10 | – | 19.34** time | statistically significant (P<0.01) reduction in the number of coughs | improved cough suppressing efficacy than the positive control drug | significantly prolonged compared with that of the compound of Comparative Example 1 | 23.81** time | 15.13**^Δ time | 16.11** time | 16.11** time | 18.13**^Δ time | – | – | – | –
C[C@@H](Cn1c(=O)cc(Nc2ccc(Oc3cccc(F)n3)cc2)n(Cc2ccc(Cl)cc2)c1=O)C(=O)NS(C)(=O)=O [Compound 24] | little or no effect on the taste sense | 39.61%^Δ | < 10 | stronger than that of the positive compound | 17.07** time | statistically significant (P<0.01) reduction in the number of coughs | improved cough suppressing efficacy than the positive control drug | significantly prolonged compared with that of the compound of Comparative Example 1 | 25.45** time | 24.14**^Δ time | 21.33** time | 21.33** time | 25.14**^Δ time | – | – | – | –
COc1cc(C(C)C)c(Oc2cnc(N)nc2N)cc1S(N)(=O)=O [Positive control, gefapixant, reference compound] | significant effect on the taste sense | 79.01%** | – | – | 20.33* time | – | did not have a significant effect in reducing coughs | – | – | 38.83 time | 23.83** time | – | – | not met | statistically significant reduction | higher frequency | higher incidence
